Laboratory results published in patent publication US8865910B2 (priority 2010, dated 2014).
Where two headings read alike, the source gives them in different places.

What was measured:
M. tuberculosis H37Rv = conditions: BACTEC 12B medium; cited from earlier work
dormant tubercle bacilli = conditions: cited from earlier work
M. bovis BCG = assay: microbe, parasite or virus in culture; assay type: cell-based, Mycobacterium bovis BCG; conditions: for inhibition at 100 µg/mL: Mycobacterium tuberculosis variant bovis BCG, BCG, 192 h
M. tuberculosis = assay: Antitubercular activity against active and dormant bacilli of M. tuberculosis; assay type: cell-based, Mycobacterium tuberculosis H37Ra
[1] = read-out: Antimycobacterial activity % inhibition at 100 μg/ml Aerobic/Active stage
[2] = read-out: Antimycobacterial activity % inhibition at 100 μg/ml Anearobic/Dormant stage

Compound | inhibition effects in the primary screening (M. tuberculosis H37Rv) | inhibition at 100 µg/mL (M. bovis BCG; [1]) | inhibition at 100 µg/mL (M. bovis BCG; [2]) | further results
O=[N+]([O-])c1cccc(CSc2nnc(-c3ccc([N+](=O)[O-])o3)s2)c1 [2-(5-nitro-2-furyl)-5-(3-nitrobenzyl)thio-1,3,4-thiadiazole] | 90% | – | – | –
C#CCSc1nnc(-c2ccc([N+](=O)[O-])o2)s1 [2-(5-nitro-2-furyl)-5-(2-propynyl)thio-1,3,4-thiadiazole] | 90% | – | – | –
CC(C)(C)C(O)(CCc1ccc(Cl)cc1)Cn1cncn1 (stereo not drawn) [tebuconazole] | – | – | – | Effectiveness against dormant tubercle bacilli (dormant tubercle bacilli): not effective
O=[N+]([O-])c1ccc(CSc2nnc(-c3ccc([N+](=O)[O-])o3)s2)cc1 [2-(5-nitro-2furyl)-5-(4-nitrobenzyl)thio-1,3,4-thiadiazole] | 90% | – | – | –
O=[N+]([O-])c1ccc(-c2nnc(SCc3ccccc3[N+](=O)[O-])s2)o1 [2-(5-nitro-2-furyl)-5-(2-nitrobenzyl)thio-1,3,4-thiadiazole] | 90% | – | – | –
OC(Cn1cncn1)(Cn1cncn1)c1ccc(F)cc1F [Fluconazole] | – | – | – | Effectiveness against dormant tubercle bacilli (dormant tubercle bacilli): not effective
C#CCSc1nc(C)nn1CC=C [10a, 1-allyl-3-methyl-5-(prop-2-ynylthio)-1H-1,2,4-triazole] | – | 98% | 93% | –
CCCSc1nnc(-c2ncc([N+](=O)[O-])n2C)s1 [2-(1-Methyl-5-nitro-1H-imidazol-2-yl)-5-(n-propyl)thio-1,3,4-thiadiazole] | 90% | – | – | –
C=CCSc1n[nH]c(-c2ccc(Cl)cc2)n1 [compound 4f, 3-(allylthio)-5-(4-chlorophenyl)-1H-1,2,4-triazole] | – | 98% | 91% | Effectiveness against active and dormant stage of the bacilli (M. tuberculosis): effective against both active as well as dormant stage; Effectiveness against active and dormant stage of the bacilli (M. bovis BCG; M. bovis BCG, active and dormant stage): effective against both active as well as dormant stage
C#CCn1nc(Br)nc1Br [11a, 3,5-dibromo-1-(prop-2-ynyl)-1H-1,2,4-triazole] | – | 97% | 20% | –
